Data taken from patent US12077503B2, “Substituted cyclic amides and their use as herbicides” (FMC CORPORATION, priority 2015, dated 2024).

Columns and labels:
Type in all cases: in vivo
[1] = tested on: barnyardgrass (Echinochloa crus-galli); test: Test A preemergence; conditions: Echinochloa crus-galli, pre-emergence, 240 h, 0 to 100 scale where 0 is no effect and 100 is complete control, read-out: Barnyardgrass plant response rating; for pest or weed control at 31 g/ha: 31 g ai/ha, Preemergence; for pest or weed control at 125 g/ha: 125 g ai/ha, preemergence, approx. 10 d
How it was run: (§1)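 In a loam soil and sand blend, planted seeds got a preemergence directed soil spray, and young plants at the one- to two-leaf stage, 2–10 cm high, got a postemergence application; ~10 d greenhouse hold; injury rated visually, 0 = none, 100 = complete control.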

[2] = tested on: pigweed (Amaranthus retroflexus); test: Test A preemergence; conditions: Amaranthus retroflexus, pre-emergence, 240 h, 0 to 100 scale where 0 is no effect and 100 is complete control, read-out: Pigweed plant response rating; for pest or weed control at 31 g/ha: 31 g ai/ha, Preemergence; for pest or weed control at 125 g/ha: 125 g ai/ha, preemergence, approx. 10 d
[3] = tested on: ryegrass, Italian (Italian ryegrass, Lolium multiflorum); test: Test A preemergence; conditions: Lolium multiflorum, pre-emergence, 240 h, 0 to 100 scale where 0 is no effect and 100 is complete control, read-out: Ryegrass, Italian plant response rating; for pest or weed control at 31 g/ha: 31 g ai/ha, Preemergence; for pest or weed control at 125 g/ha: 125 g ai/ha, preemergence, approx. 10 d
How it was run: as §1

[4] = tested on: Kochia (Kochia scoparia); test: Test A preemergence; conditions: Bassia scoparia, pre-emergence, 240 h, 0 to 100 scale where 0 is no effect and 100 is complete control, read-out: Kochia plant response rating; for pest or weed control at 31 g/ha: 31 g ai/ha, Preemergence; for pest or weed control at 125 g/ha: 125 g ai/ha, preemergence, approx. 10 d
How it was run: as §1

[5] = tested on: giant foxtail (Setaria faberii); test: Test A preemergence; conditions: Setaria faberi, pre-emergence, 240 h, 0 to 100 scale where 0 is no effect and 100 is complete control, read-out: Foxtail, Giant plant response rating; for pest or weed control at 31 g/ha: 31 g ai/ha, Preemergence; for pest or weed control at 125 g/ha: 125 g ai/ha, preemergence, approx. 10 d
How it was run: as §1

[6] = tested on: ragweed (common ragweed, Ambrosia elatior); test: Test A preemergence; conditions: Ambrosia artemisiifolia, pre-emergence, 240 h, 0 to 100 scale where 0 is no effect and 100 is complete control, read-out: Ragweed plant response rating; for pest or weed control at 31 g/ha: 31 g ai/ha, Preemergence; for pest or weed control at 125 g/ha: 125 g ai/ha, preemergence, approx. 10 d
How it was run: as §1

[7] = tested on: barnyardgrass (Echinochloa crus-galli); test: Test A postemergence; conditions: Echinochloa crus-galli, post-emergence, 240 h
How it was run: as §1

[8] = tested on: pigweed (Amaranthus retroflexus); test: Test A postemergence; conditions: Amaranthus retroflexus, post-emergence, 240 h; for pest or weed control at 125 g/ha: 125 g ai/ha, postemergence, visual injury on 0 to 100 scale (0 no effect, 100 complete control), approx. 10 d, read-out: Pigweed plant response rating; for pest or weed control at 31 g/ha: Postemergence, 31 g ai/ha, visual injury after approx. 10 d, 0 to 100 scale, 0 no effect, 100 complete control, read-out: Plant response rating, Pigweed
How it was run: as §1

[9] = tested on: blackgrass (Alopecurus myosuroides); test: Test A postemergence; conditions: Alopecurus myosuroides, post-emergence, 240 h; for pest or weed control at 125 g/ha: 125 g ai/ha, postemergence, visual injury on 0 to 100 scale (0 no effect, 100 complete control), approx. 10 d, read-out: Blackgrass plant response rating; for pest or weed control at 31 g/ha: Postemergence, 31 g ai/ha, visual injury after approx. 10 d, 0 to 100 scale, 0 no effect, 100 complete control, read-out: Plant response rating, Blackgrass
How it was run: as §1

[10] = tested on: corn (Zea mays); test: Test A postemergence; conditions: Zea mays, post-emergence, 240 h; for plant injury at 125 g/ha: 125 g ai/ha, postemergence, visual injury on 0 to 100 scale (0 no effect, 100 complete control), approx. 10 d, read-out: Corn plant response rating; for Corn plant response rating (crop injury, 0 = no effect, 100 = complete kill) at 31 g/ha: Postemergence, 31 g ai/ha, visual injury after approx. 10 d, 0 to 100 scale, 100 complete control
How it was run: as §1

[11] = tested on: wheat (Triticum aestivum); test: Test A postemergence; conditions: Triticum aestivum, post-emergence, 240 h; for plant injury at 125 g/ha: 125 g ai/ha, postemergence, visual injury on 0 to 100 scale (0 no effect, 100 complete control), approx. 10 d, read-out: Wheat plant response rating; for plant injury at 31 g/ha: Postemergence, 31 g ai/ha, visual injury after approx. 10 d, 0 to 100 scale, 0 no effect, 100 complete control, read-out: Plant response rating, Wheat
How it was run: as §1

[12] = tested on: ryegrass, Italian (Italian ryegrass, Lolium multiflorum); test: Test A postemergence; conditions: Lolium multiflorum, post-emergence, 240 h; for pest or weed control at 125 g/ha: 125 g ai/ha, postemergence, visual injury on 0 to 100 scale (0 no effect, 100 complete control), approx. 10 d, read-out: Ryegrass, Italian plant response rating; for pest or weed control at 31 g/ha: Postemergence, 31 g ai/ha, visual injury after approx. 10 d, 0 to 100 scale, 0 no effect, 100 complete control, read-out: Plant response rating, Ryegrass, Italian
How it was run: as §1

[13] = tested on: Kochia (Kochia scoparia); test: Test A postemergence; conditions: Bassia scoparia, post-emergence, 240 h; for pest or weed control at 125 g/ha: 125 g ai/ha, postemergence, visual injury on 0 to 100 scale (0 no effect, 100 complete control), approx. 10 d, read-out: Kochia plant response rating; for pest or weed control at 31 g/ha: Postemergence, 31 g ai/ha, visual injury after approx. 10 d, 0 to 100 scale, 0 no effect, 100 complete control, read-out: Plant response rating, Kochia
How it was run: as §1

[14] = tested on: giant foxtail (Setaria faberii); test: Test A postemergence; conditions: Setaria faberi, post-emergence, 240 h; for pest or weed control at 125 g/ha: 125 g ai/ha, postemergence, visual injury on 0 to 100 scale (0 no effect, 100 complete control), approx. 10 d, read-out: Foxtail, Giant plant response rating; for pest or weed control at 31 g/ha: Postemergence, 31 g ai/ha, visual injury after approx. 10 d, 0 to 100 scale, 0 no effect, 100 complete control, read-out: Plant response rating, Foxtail, Giant
How it was run: as §1

[15] = tested on: ragweed (common ragweed, Ambrosia elatior); test: Test A postemergence; conditions: Ambrosia artemisiifolia, post-emergence, 240 h; for pest or weed control at 125 g/ha: 125 g ai/ha, postemergence, visual injury on 0 to 100 scale (0 no effect, 100 complete control), approx. 10 d, read-out: Ragweed plant response rating; for pest or weed control at 31 g/ha: Postemergence, 31 g ai/ha, visual injury after approx. 10 d, 0 to 100 scale, 0 no effect, 100 complete control, read-out: Plant response rating, Ragweed
How it was run: as §1

[16] = tested on: barnyardgrass (Echinochloa crus-galli); test: Test B flooded paddy test; conditions: Echinochloa crus-galli, 250 g ai/ha, Flood; 0 to 100 scale where 0 is no effect and 100 is complete control; read-out: Barnyardgrass plant response rating
How it was run: (§2)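 Flooding to 3 cm over soil accompanied treatment, which consisted of adding compound to the standing water around 2-leaf plants; depth was then maintained. Visual assessment versus controls followed at 13 to 15 d (scale 0–100, 0 meaning no effect).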

[17] = tested on: rice (Oryra sativa); test: Test B flooded paddy test; conditions: Oryza sativa, 250 g ai/ha, Flood; 0 to 100 scale where 0 is no effect and 100 is complete control; read-out: Rice plant response rating
How it was run: as §2

[18] = tested on: ducksalad (Heteranthera limosa); test: Test B flooded paddy test; conditions: Heteranthera limosa, 250 g ai/ha, Flood; 0 to 100 scale where 0 is no effect and 100 is complete control; read-out: Ducksalad plant response rating
How it was run: as §2

[19] = tested on: sedge, umbrella (small-flower umbrella sedge, Cyperus difformis); test: Test B flooded paddy test; conditions: Cyperus difformis, 250 g ai/ha, Flood; 0 to 100 scale where 0 is no effect and 100 is complete control; read-out: Sedge, Umbrella plant response rating
How it was run: as §2

[20] = tested on: Galium (catchweed bedstraw, Galium aparine); test: Test A postemergence; conditions: Galium, post-emergence, 240 h
How it was run: as §1

CC(C)Oc1cc([C@H]2CN(C)C(=O)[C@@H]2C(=O)Nc2ccccc2F)ccc1F [Compound 1074]
70%: pest or weed control at 31 g/ha [14]
10%: pest or weed control at 125 g/ha [6]
20%: pest or weed control at 125 g/ha [2] | pest or weed control at 125 g/ha [4] | pest or weed control at 31 g/ha [9] | plant injury at 125 g/ha [10] | pest or weed control at 31 g/ha [12] | pest or weed control at 125 g/ha [13]
100%: pest or weed control at 125 g/ha [1] | pest or weed control at 31 g/ha [5] | pest or weed control at 125 g/ha [5] | pest or weed control at 250 g/ha [18]
0%: pest or weed control at 31 g/ha [2] | pest or weed control at 31 g/ha [3] | pest or weed control at 31 g/ha [4] | pest or weed control at 31 g/ha [6] | pest or weed control at 125 g/ha [8] | pest or weed control at 31 g/ha [8] | Corn plant response rating (crop injury, 0 = no effect, 100 = complete kill) at 31 g/ha [10] | plant injury at 31 g/ha [11] | pest or weed control at 31 g/ha [13] | pest or weed control at 125 g/ha [15] | pest or weed control at 31 g/ha [15] | pest or weed control at 250 g/ha [19]
35%: pest or weed control at 250 g/ha [17]
75%: pest or weed control at 250 g/ha [16]
50%: pest or weed control at 125 g/ha [3] | pest or weed control at 125 g/ha [9]
80%: pest or weed control at 31 g/ha ([7]; Postemergence, 31 g ai/ha, visual injury after approx. 10 d, 0 to 100 scale, 0 no effect, 100 complete control, read-out: Plant response rating, Barnyardgrass)
40%: plant injury at 125 g/ha [11]
90%: pest or weed control at 31 g/ha [1] | pest or weed control at 125 g/ha ([7]; 125 g ai/ha, postemergence, visual injury on 0 to 100 scale (0 no effect, 100 complete control), approx. 10 d, read-out: Barnyardgrass plant response rating) | pest or weed control at 125 g/ha [14]
30%: pest or weed control at 125 g/ha [12]

CN1C[C@H](c2cc(C(F)F)cs2)[C@@H](C(=O)Nc2cccc(F)n2)C1=O [Compound 1090]
20%: pest or weed control at 31 g/ha [4] | pest or weed control at 125 g/ha [9] | plant injury at 125 g/ha [10] | plant injury at 125 g/ha [11] | pest or weed control at 31 g/ha [14]
30%: pest or weed control at 31 g/ha [3] | pest or weed control at 125 g/ha [4] | pest or weed control at 125 g/ha ([20]; 125 g ai/ha, postemergence, visual injury on 0 to 100 scale (0 no effect, 100 complete control), approx. 10 d, read-out: Galium plant response rating) | pest or weed control at 31 g/ha ([20]; Postemergence, 31 g ai/ha, visual injury after approx. 10 d, 0 to 100 scale, 0 no effect, 100 complete control, read-out: Plant response rating, Galium) | pest or weed control at 125 g/ha [13]
0%: pest or weed control at 31 g/ha [2] | pest or weed control at 125 g/ha [2] | pest or weed control at 125 g/ha [3] | pest or weed control at 31 g/ha [6] | pest or weed control at 125 g/ha [6] | pest or weed control at 125 g/ha [8] | pest or weed control at 31 g/ha [8] | pest or weed control at 31 g/ha [9] | Corn plant response rating (crop injury, 0 = no effect, 100 = complete kill) at 31 g/ha [10] | plant injury at 31 g/ha [11] | pest or weed control at 125 g/ha [12] | pest or weed control at 31 g/ha [12] | pest or weed control at 31 g/ha [13] | pest or weed control at 125 g/ha [15] | pest or weed control at 31 g/ha [15] | pest or weed control at 250 g/ha [17] | pest or weed control at 250 g/ha [19]
10%: pest or weed control at 31 g/ha [1]
60%: pest or weed control at 31 g/ha [5]
100%: pest or weed control at 125 g/ha [5]
95%: pest or weed control at 250 g/ha [18]
90%: pest or weed control at 125 g/ha [1]
80%: pest or weed control at 125 g/ha [14] | pest or weed control at 250 g/ha [16]
